Measurements published in publication PMC12040169 (PLOS Biology, 2025).

assay: in vitro; settings: human, hela cells, % viability

Structure (SMILES)	viability at 28.5 h, 10 µM [%]
COc1ccc(N2CCN(c3cc(-c4cccc([N+](=O)[O-])c4)ncn3)CC2)cc1OC [CBK091031]	86.4
COc1ccc(N2CCN(c3cc(-c4ccc(OC(F)(F)F)cc4)ncn3)CC2)cc1OC [CBK091032]	94.1
CC[C@@H]1CCCCN1C(=O)c1sc2nc(C(C)=O)ccc2c1Cl [CBK091036]	88.1
CC[C@H]1CCCCN1C(=O)c1sc2nc(C(C)=O)ccc2c1Cl [CBK091046]	101
Cc1cc(O)ccc1Nc1cc(-c2ccccc2N(C)C)ncn1 [CBK091051]	104
COc1cncc(-c2cc(Nc3ccc(O)cc3C)ncn2)c1 [CBK091061]	103
O=C(CN1CCN(c2cc(-c3ccc4ccccc4c3)ncn2)CC1)N1CCCC1 [CBK091064]	104
O=C(O)CCc1ccc(-c2cc(N3CCN(CC(=O)N4CCCC4)CC3)ncn2)cc1 [CBK091079]	104
c1ccc(Oc2ccccc2-c2cc(N3CCN(c4ccccn4)CC3)ncn2)cc1 [CBK091083]	91.5
c1ccc(N2CCN(c3cc(-c4cc5ccccc5s4)ncn3)CC2)nc1 [CBK091084]	102
O=[N+]([O-])c1cccc(-c2cc(NCCc3ccccn3)ncn2)c1 [CBK091087]	96.7
Nc1ccc(C(=O)Nc2ccc(Nc3cc(-c4cc(C(F)(F)F)cc(C(F)(F)F)c4)ncn3)cc2)cc1 [CBK091091]	94.8
Nc1ccc(C(=O)Nc2ccc(Nc3cc(-c4ccccc4OCc4ccccc4)ncn3)cc2)cc1 [CBK091092]	94.4
O=C(c1ccco1)N1CCN(c2cc(-c3cccc4cccnc34)ncn2)CC1 [CBK091117]	99.1
COc1cncc(-c2cc(N3CCN(C(=O)c4ccco4)CC3)ncn2)c1 [CBK091121]	97.4
CN(C(=O)CN1CCN(c2cc(-c3ccsc3)ncn2)CC1)c1ccccc1 [CBK091129]	99.7
CN(C(=O)CN1CCN(c2cc(-c3cccc4oc5ccccc5c34)ncn2)CC1)c1ccccc1 [CBK091130]	97.8

Structure (SMILES)	viability at 28.5 h, 10 µM [%]
CC(=O)Nc1cccc(-c2cc(N3CCN(CC(=O)N(C)c4ccccc4)CC3)ncn2)c1 [CBK091134]	99.7
CN(C(=O)CN1CCN(c2cc(-c3cccc([N+](=O)[O-])c3)ncn2)CC1)c1ccccc1 [CBK091137]	103
Cc1ccc(Nc2cc(-c3ccsc3)ncn2)cc1NS(C)(=O)=O [CBK091149]	97.9
Cc1ccc(Nc2cc(-c3cccc4oc5ccccc5c34)ncn2)cc1NS(C)(=O)=O [CBK091150]	93.6
COc1cncc(-c2cc(N3CCN(S(=O)(=O)c4ccc(Cl)cc4)CC3)ncn2)c1 [CBK091162]	108
CC(=O)c1ccc(-c2cc(N3CCN(CCN4CCCC4)CC3)ncn2)s1 [CBK091169]	98.8
COc1cc(CNc2cc(-c3ccco3)ncn2)cc(OC)c1OC [CBK091181]	106
COc1cncc(-c2cc(NCc3cc(OC)c(OC)c(OC)c3)ncn2)c1 [CBK091183]	88.4
COc1ccc(-c2cc(NCc3cc(OC)c(OC)c(OC)c3)ncn2)cc1 [CBK091184]	90
COc1cc(CNc2cc(-c3ccc(NC(C)=O)cc3)ncn2)cc(OC)c1OC [CBK091185]	93.6
N#CCc1ccc(Nc2cc(-c3cccc(N)c3)ncn2)cc1 [CBK091187]	96.7
CCN(CC)CCN1CCN(c2cc(-c3cc(C(F)(F)F)cc(C(F)(F)F)c3)ncn2)CC1 [CBK091195]	94
CC(=O)c1cccc(-c2cnc(Nc3ccc(N4CCOCC4)cc3)c3nccn23)c1 [CBK091217]	91.5
COc1cc(CNc2ncc(-c3ccc(N4CCOCC4)cc3)n3ccnc23)cc(OC)c1OC [CBK091219]	100
c1coc(CNc2ncc(-c3ccc(N4CCOCC4)cc3)n3ccnc23)c1 [CBK091220]	102
CN(C)c1cccc(Nc2ncc(-c3ccc(N4CCOCC4)cc3)n3ccnc23)c1 [CBK091222]	94.5
